# Reference: PMC11078216, “Discovery of potent and selective activity-based probes (ABPs) for the deubiquitinating enzyme USP30” (RSC Chemical Biology, 2024)
# Target: T1, USP30 (Homo sapiens, UniProt Q70CQ3)
# T1 construct: Catalog #E-582 residues 57-517; purchased E-582
# T1 sequence (Q70CQ3 57-517): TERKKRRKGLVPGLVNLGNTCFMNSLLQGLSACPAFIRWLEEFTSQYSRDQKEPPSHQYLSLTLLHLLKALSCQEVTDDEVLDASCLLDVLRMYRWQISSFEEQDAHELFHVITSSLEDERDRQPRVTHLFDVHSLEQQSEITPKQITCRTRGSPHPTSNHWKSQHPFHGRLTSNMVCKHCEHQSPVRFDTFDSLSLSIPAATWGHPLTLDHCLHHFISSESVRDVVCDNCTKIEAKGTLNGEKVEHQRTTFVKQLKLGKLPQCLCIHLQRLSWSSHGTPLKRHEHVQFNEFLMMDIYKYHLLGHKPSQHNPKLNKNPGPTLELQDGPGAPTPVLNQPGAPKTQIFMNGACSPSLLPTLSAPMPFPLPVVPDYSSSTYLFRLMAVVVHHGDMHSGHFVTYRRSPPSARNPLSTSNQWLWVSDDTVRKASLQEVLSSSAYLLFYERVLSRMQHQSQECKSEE
# Assay: USP30 biochemical IC50 fluorescence polarisation assay using Ub-Lys(TAMRA)-Gly
# Conditions: 30 min incubation, USP30 5 nM, Ub-Lys(TAMRA)-Gly 100 nM; read-out: IC50 against USP30
# Protocol: We first confirmed biochemical inhibition of USP30 with our probes in a fluorescence polarisation (FP) assay using a TAMRA labelled Lys-Gly dipeptide linked to ubiquitin via an isopeptide bond (Ub-Lys(TAMRA)-Gly). USP30 (5 nM) was incubated across a concentration series of test compound for 30 min, followed by FP measurement after addition of Ub-Lys(TAMRA)-Gly (100 nM).
# 4. Biochemical and biological methods and proteomics
# 1) Biochemical USP30 fluorescence polarisation (FP) assay using Ub-Lys(TAMRA)-Gly a. USP30 biochemical IC50 assay
# Reactions were performed in triplicate in black 384 well plates (Greiner #784076) in a final reaction volume of 21 μL. Compound dilutions were prepared at 21× final concentration (2000 nM for a final concentration of 100 nM) in 50% DMSO/water. USP30 was diluted in reaction buffer A (40 mM Tris, pH 7.5, 0.005% Tween 20, 0.5 mg/ml BSA, 5 mM betamercaptoethanol) and 10 μL of diluted 10.5 nM USP30 was added to the compound (final concentration 5 nM). Enzyme and compound were incubated for 30 min at room temperature. Reactions were initiated by the addition of 10 ul 200 nM (final concentration 100 nM) of TAMRA labeled peptide linked to ubiquitin via an iso-peptide bond (Ub-Lys(TAMRA)-Gly, UbiQ-012). Reactions were read immediately after substrate addition using a Pherastar Plus (BMG Labtech; λEx 531 nm, λEm 579 nm). IC50 values were determined by plotting percentage USP30 activity against compound concentration and fitting a four -parameter dose-response curve (Graphpad Prism 5.03). […]
# Kinetic progress curves were fitted to equation y = (vi/kobs) (1 − exp(−kobs*x)) to determine the kobs value (for first 30 min data). The kobs value was then plotted against the inhibitor concentration to […]
row,Structure (SMILES),IC50 [nM]
1,N#CN1CC[C@@H](NC(=O)c2cc(-c3ccccc3Oc3ccc(N=[N+]=[N-])cc3)n[nH]2)C1 [IMP-2586],16.3
2,C#Cc1cccc(-c2cc(NC(=O)CC3CCN(C#N)C3)on2)c1 (stereo not shown) [IMP-2587],12.6
3,"N#CN1CC[C@H](CC(=O)Nc2cc(-c3cccc(Cl)c3)no2)C1 [compound 1, reference compound]",18.3
4,"N#CN1CC[C@@H](NC(=O)c2cc(-c3ccccc3Oc3ccccc3)n[nH]2)C1 [compound 3, reference compound]",4.8
